Measured values from patent US11051515B2, “3-acyl-benzamides and their use as herbicides” (Bayer Aktiengesellschaft, priority 2017, dated 2021).

Experiments:
ALOMY [1] = assay: Pre-emergence action against ALOMY; assay type: in vivo, Alopecurus myosuroides; settings: Alopecurus myosuroides, 504 h; dosage 320 g/ha; pre-emergence; scored visually after 3 weeks vs untreated controls; 100% = plants have died, 0% = like control plants; read-out: Pre-emergence action against ALOMY (herbicidal activity in percent)
Summary of the method: (§1)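 Seeds sown in sandy loam in wood-fiber pots and covered with soil. Greenhouse growth; visual damage scored after 3 weeks versus untreated controls (100% = dead, 0% = like control).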

AVEFA [2] = assay: Pre-emergence action against AVEFA; assay type: in vivo, Avena fatua; settings: Avena fatua, 504 h, dosage 320 g/ha, scored visually after 3 weeks vs untreated controls, read-out: Pre-emergence action against AVEFA (herbicidal activity)
Summary of the method: as §1

ECHCG [3] = assay: Pre-emergence action against ECHCG; assay type: in vivo, Echinochloa crus-galli; settings: pre-emergence, dosage 320 g/ha, scored visually after 3 weeks vs untreated controls
Summary of the method: as §1

SETVI [4] = assay: Pre-emergence action against SETVI; assay type: in vivo, Setaria viridis; settings: pre-emergence, dosage 320 g/ha, scored visually after 3 weeks vs untreated controls
Summary of the method: as §1

ABUTH [5] = assay: Pre-emergence action against ABUTH; assay type: in vivo, Abutilon theophrasti; settings: pre-emergence, dosage 320 g/ha, scored visually after 3 weeks vs untreated controls
Summary of the method: as §1

AMARE [6] = assay: Pre-emergence action against AMARE; assay type: in vivo, Amaranthus retroflexus; settings: pre-emergence, dosage 320 g/ha, scored visually after 3 weeks vs untreated controls
Summary of the method: as §1

MATIN [7] = assay: Pre-emergence action against MATIN; assay type: in vivo, Matricaria inodora; settings: Dosage 320 g/ha, pre-emergence
Summary of the method: as §1

STEME [8] = assay: Pre-emergence action against STEME; assay type: in vivo, Stellaria media; settings: Dosage 320 g/ha, pre-emergence
Summary of the method: as §1

VIOTR [9] = assay: Pre-emergence action against VIOTR; assay type: in vivo, Viola tricolor; settings: Dosage 320 g/ha, pre-emergence
Summary of the method: as §1

VERPE [10] = assay: Pre-emergence action against VERPE; assay type: in vivo, Veronica persica; settings: Dosage 320 g/ha, pre-emergence
Summary of the method: as §1

ALOMY [11] = assay: Post-emergence action against ALOMY; assay type: in vivo, Alopecurus myosuroides; settings: Dosage 80 g/ha, post-emergence
Description: (§2) Seeds of monocotyledonous and dicotyledonous weed and crop plants are laid out in sandy loam soil in wood-fiber pots, covered with soil and cultivated in a greenhouse under good growth conditions. 2 to 3 weeks after sowing, the test plants are treated at the one-leaf stage. The compounds of the invention, formulated in the form of wettable powders (WP) or as emulsion concentrates (EC), are then sprayed onto the green parts of the plants in the form of an aqueous suspension or emulsion at a water application rate equating to […], with addition of 0.2% wetting agent. After the test plants have been left to stand in the greenhouse under optimal growth conditions for about 3 weeks, the action of the preparations is assessed visually in comparison to untreated controls (herbicidal action in percent (%): 100% activity=the plants have died, 0% activity=like control plants). […] At the same time, inventive compounds leave Gramineae crops such as barley, wheat, rye, millet/Sorghum, corn or rice virtually undamaged when applied post-emergence, even at high active ingredient dosages. In addition, some substances are also harmless to dicotyledonous crops such as soya, cotton, oilseed rape, sugar beet or potatoes. Some of the compounds according to the invention have high selectivity and are therefore suitable for controlling unwanted vegetation in agricultural crops by the post-emergence method. The data of Tables B18 to B34 below illustrate, in an exemplary manner, the […] herbicidal action of the compounds according to the invention, the herbicidal activity being stated in percent.

AVEFA [12] = assay: Post-emergence action against AVEFA; assay type: in vivo, Avena fatua; settings: Avena fatua, 504 h; post-emergence, dosage 80 g/ha, visual assessment about 3 weeks after treatment vs untreated controls; read-out: Post-emergence action against AVEFA (herbicidal action in percent)
Description: as §2

ECHCG [13] = assay: Post-emergence action against ECHCG; assay type: in vivo, Echinochloa crus-galli; settings: post-emergence, dosage 80 g/ha, visual assessment about 3 weeks after treatment vs untreated controls
Summary of the method: (§3)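 Post-emergence foliar spray on greenhouse plants at the one-leaf stage, using wettable-powder or emulsion-concentrate formulations in water (600 to […], plus 0.2% wetting agent). Damage scored by eye roughly 3 weeks later against untreated plants: 0% = like control, 100% = dead.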

SETVI [14] = assay: Post-emergence action against SETVI; assay type: in vivo, Setaria viridis; settings: post-emergence, dosage 80 g/ha, visual assessment about 3 weeks after treatment vs untreated controls
Summary of the method: as §3

ABUTH [15] = assay: Post-emergence action against ABUTH; assay type: in vivo, Abutilon theophrasti; settings: post-emergence, dosage 80 g/ha, visual assessment about 3 weeks after treatment vs untreated controls
Summary of the method: as §3

AMARE [16] = assay: Post-emergence action against AMARE; assay type: in vivo, Amaranthus retroflexus; settings: post-emergence, dosage 80 g/ha, visual assessment about 3 weeks after treatment vs untreated controls
Summary of the method: as §3

MATIN [17] = assay: Post-emergence action against MATIN; assay type: in vivo, Matricaria inodora; settings: Tripleurospermum inodorum, 504 h; post-emergence, dosage 80 g/ha, visual assessment about 3 weeks after treatment vs untreated controls; read-out: Post-emergence action against MATIN (herbicidal action in percent)
Summary of the method: as §3

PHBPU = assay: Post-emergence action against PHBPU; assay type: in vivo, Pharbitis purpurea; settings: post-emergence, dosage 80 g/ha
Summary of the method: as §3

STEME [18] = assay: Post-emergence action against STEME; assay type: in vivo, Stellaria media; settings: post-emergence, dosage 80 g/ha
Summary of the method: as §3

VIOTR [19] = assay: Post-emergence action against VIOTR; assay type: in vivo, Viola tricolor; settings: post-emergence, dosage 80 g/ha
Summary of the method: as §3

VERPE [20] = assay: Post-emergence action against VERPE; assay type: in vivo, Veronica persica; settings: Veronica persica, 504 h, dosage 80 g/ha
Summary of the method: as §3

CYPES = assay: Pre-emergence action against CYPES; assay type: in vivo, Cyperus esculentus; settings: pre-emergence, dosage 320 g/ha, scored visually after 3 weeks vs untreated controls
Summary of the method: as §1

POLCO [21] = assay: Pre-emergence action against POLCO; assay type: in vivo, Polygonum convolvulus; settings: Dosage 320 g/ha, pre-emergence
Summary of the method: as §1

POLCO [22] = assay: Post-emergence action against POLCO; assay type: in vivo, Polygonum convolvulus; settings: post-emergence, dosage 80 g/ha
Summary of the method: as §3

Question: Which pest or weed control at 320 g/ha (ALOMY [1]) does the source give for `CSc1ccc(C(=O)Nc2nnnn2C)c(Cl)c1C(=O)C1CC1` [1-123] here?
Answer: 90%

Question: What about the pest or weed control at 320 g/ha (AVEFA [2]) of the same compound?
Answer: 80%

Question: And the pest or weed control at 320 g/ha (ECHCG [3]; Echinochloa crus-galli, 504 h, read-out: Pre-emergence action against ECHCG (herbicidal activity))?
Answer: 100%

Question: What about the pest or weed control at 320 g/ha (SETVI [4]; Setaria viridis, 504 h, read-out: SETVI (Table B8, pre-emergence herbicidal activity)) of the same compound?
Answer: 100%

Question: And the pest or weed control at 320 g/ha (ABUTH [5]; Abutilon theophrasti, 504 h, read-out: Pre-emergence action against ABUTH (herbicidal activity))?
Answer: 90%

Question: What about the pest or weed control at 320 g/ha (AMARE [6]; Amaranthus retroflexus, 504 h, read-out: Pre-emergence action against AMARE (herbicidal activity)) of the same compound?
Answer: 100%

Question: What about the pest or weed control at 320 g/ha (MATIN [7]; Tripleurospermum inodorum, 504 h) of the same compound?
Answer: 100%

Question: And the pest or weed control at 320 g/ha (STEME [8]; Stellaria media, 504 h)?
Answer: 90%

Question: What about the pest or weed control at 320 g/ha (VIOTR [9]; Viola tricolor, 504 h) of the same compound?
Answer: 100%

Question: And the pest or weed control at 320 g/ha (VERPE [10]; Veronica persica, 504 h)?
Answer: 100%

Question: What about the pest or weed control at 80 g/ha (ALOMY [11]; Alopecurus myosuroides, 504 h) of the same compound?
Answer: 80%

Question: What about the pest or weed control at 80 g/ha (AVEFA [12]) of the same compound?
Answer: 100%

Question: And the pest or weed control at 80 g/ha (ECHCG [13]; Echinochloa crus-galli, 504 h, read-out: Post-emergence action against ECHCG (herbicidal action in percent))?
Answer: 100%

Question: What about the pest or weed control at 80 g/ha (SETVI [14]; Setaria viridis, 504 h, read-out: Post-emergence action against SETVI (herbicidal action in percent)) of the same compound?
Answer: 100%

Question: And the pest or weed control at 80 g/ha (ABUTH [15]; Abutilon theophrasti, 504 h, read-out: Post-emergence action against ABUTH (herbicidal action in percent))?
Answer: 100%

Question: What about the pest or weed control at 80 g/ha (AMARE [16]; Amaranthus retroflexus, 504 h, read-out: Post-emergence action against AMARE (herbicidal action in percent)) of the same compound?
Answer: 100%

Question: And the pest or weed control at 80 g/ha (MATIN [17])?
Answer: 100%

Question: What about the pest or weed control at 80 g/ha (PHBPU; Ipomoea purpurea, 504 h) of the same compound?
Answer: 90%

Question: And the pest or weed control at 80 g/ha (STEME [18]; Stellaria media, 504 h)?
Answer: 100%

Question: What about the pest or weed control at 80 g/ha (VIOTR [19]; Viola tricolor, 504 h) of the same compound?
Answer: 100%

Question: What about the pest or weed control at 80 g/ha (VERPE [20]) of the same compound?
Answer: 100%

Question: For `CCn1nnnc1NC(=O)c1ccc(C(F)(F)F)c(C(=O)CCl)c1Cl` [2-145], which “Pre-emergence action against CYPES (herbicidal activity)” value (CYPES) is on record?
Answer: 100%

Question: And the “Pre-emergence action against ECHCG (herbicidal activity)” value (ECHCG [3])?
Answer: 90%

Question: And the “SETVI (Table B8, pre-emergence herbicidal activity)” value (SETVI [4])?
Answer: 100%

Question: And the “Pre-emergence action against ABUTH (herbicidal activity)” value (ABUTH [5])?
Answer: 100%

Question: What about the “Pre-emergence action against AMARE (herbicidal activity)” value (AMARE [6]) of the same compound?
Answer: 100%

Question: And the “Pre-emergence action against MATIN” value (MATIN [7])?
Answer: 100%

Question: What about the “Pre-emergence action against POLCO” value (POLCO [21]) of the same compound?
Answer: 90%

Question: And the “Pre-emergence action against STEME” value (STEME [8])?
Answer: 100%

Question: What about the “Pre-emergence action against VIOTR” value (VIOTR [9]) of the same compound?
Answer: 100%

Question: And the “Pre-emergence action against VERPE” value (VERPE [10])?
Answer: 100%

Question: And the “Post-emergence action against ALOMY” value (ALOMY [11])?
Answer: 80%

Question: What about the “Post-emergence action against ECHCG (herbicidal action in percent)” value (ECHCG [13]) of the same compound?
Answer: 100%

Question: And the “Post-emergence action against SETVI (herbicidal action in percent)” value (SETVI [14])?
Answer: 100%

Question: And the “Post-emergence action against ABUTH (herbicidal action in percent)” value (ABUTH [15])?
Answer: 100%

Question: And the “Post-emergence action against AMARE (herbicidal action in percent)” value (AMARE [16])?
Answer: 100%

Question: And the “Post-emergence action against PHBPU” value (PHBPU)?
Answer: 100

Question: What about the “Post-emergence action against POLCO” value (POLCO [22]) of the same compound?
Answer: 80

Question: And the “Post-emergence action against STEME” value (STEME [18])?
Answer: 100

Question: What about the “Post-emergence action against VIOTR” value (VIOTR [19]) of the same compound?
Answer: 100
